Experimental data: patent publication US12559487B2, “Crosslinked optically active secondary amine derivative” (Sumitomo Pharma Co., Ltd., priority 2019, dated 2026)
Like-named read-outs stand apart in the source and are kept apart here.

Legend:
MV4; 11 cells = experiment: Test 1: Test for evaluating the inhibition of cell proliferation; assay type: cell-based; conditions: for IC50: cultured for 7 days, PrestoBlue cell viability
Method: MV4; 11 cells were obtained from American Type Culture Collection (ATCC). The cells were cultured at 37° C. in the presence of 5% CO2 in RPMI 1640 medium containing 10% fetal bovine serum and 1% penicillin/streptomycin.
The cells were plated to a 96-well plate in 2000 cells/well, each test compound was added thereto to adjust the final concentration of DMSO to 0.1% of DMSO, and the cells were cultured for 7 days. After the cultivation, the cell viability was calculated with PrestoBlue™ Cell Viability Reagent (Invitrogen, A13261).

[1] = biological target: T1, hERG (human Ether-a-go-go Related Gene) (Homo sapiens (Human), UniProt Q12809)
T1 sequence (Q12809 whole entry): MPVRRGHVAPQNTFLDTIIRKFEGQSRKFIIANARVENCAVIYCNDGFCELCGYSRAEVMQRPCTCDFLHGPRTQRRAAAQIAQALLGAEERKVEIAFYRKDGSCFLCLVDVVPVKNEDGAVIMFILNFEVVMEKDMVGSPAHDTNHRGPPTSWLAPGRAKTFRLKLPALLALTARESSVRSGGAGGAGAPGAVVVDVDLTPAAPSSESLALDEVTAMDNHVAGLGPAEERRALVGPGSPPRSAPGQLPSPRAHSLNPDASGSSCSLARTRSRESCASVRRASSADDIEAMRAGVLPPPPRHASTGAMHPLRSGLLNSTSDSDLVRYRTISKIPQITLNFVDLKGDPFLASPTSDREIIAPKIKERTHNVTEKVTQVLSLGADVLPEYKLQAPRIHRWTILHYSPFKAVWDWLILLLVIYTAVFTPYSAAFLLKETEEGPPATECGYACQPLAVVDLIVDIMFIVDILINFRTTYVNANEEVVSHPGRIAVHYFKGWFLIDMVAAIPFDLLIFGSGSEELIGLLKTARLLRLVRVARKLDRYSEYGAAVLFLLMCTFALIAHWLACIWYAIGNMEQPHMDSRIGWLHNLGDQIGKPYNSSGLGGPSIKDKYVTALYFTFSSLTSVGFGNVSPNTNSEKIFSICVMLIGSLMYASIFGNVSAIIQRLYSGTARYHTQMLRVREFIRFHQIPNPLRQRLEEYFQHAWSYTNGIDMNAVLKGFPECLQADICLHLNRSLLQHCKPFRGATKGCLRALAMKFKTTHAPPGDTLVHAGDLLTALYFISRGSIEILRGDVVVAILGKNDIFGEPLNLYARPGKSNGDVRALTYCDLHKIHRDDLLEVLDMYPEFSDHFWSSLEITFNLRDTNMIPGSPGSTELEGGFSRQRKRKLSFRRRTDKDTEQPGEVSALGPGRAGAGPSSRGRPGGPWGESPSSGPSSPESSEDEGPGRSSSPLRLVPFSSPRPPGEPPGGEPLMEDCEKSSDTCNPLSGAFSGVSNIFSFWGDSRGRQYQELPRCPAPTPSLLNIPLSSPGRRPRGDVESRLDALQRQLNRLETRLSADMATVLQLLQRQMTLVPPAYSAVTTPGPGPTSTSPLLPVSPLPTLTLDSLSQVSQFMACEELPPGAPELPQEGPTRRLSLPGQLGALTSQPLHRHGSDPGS

[2] = biological target: T1, hERG (human Ether-a-go-go Related Gene); experiment: Test 2: Test for the hERG inhibition (QPatch HT, CHO cell strain stably expressing hERG); conditions: for hERG/MV4; 11: hERG IC50 divided by MV4, 11 proliferation IC50; for gap between concentration inhibiting 50% of MV4; 11 proliferation and concentration inhibiting 50% of hERG current: hERG IC50 vs MV4, 11 IC50; for IC50: CHO cells stably expressing hERG, QPatch HT
[3] = read-out: hERG IC50, hERG current

Compound | IC50 (MV4; 11 cells) | hERG/MV4; 11 [1] | other results
2-(3-{1-[(1S,3S,4R,6S)-6-(cyclopropylmethyl)-2-azabicyclo[2.2.2]octane-3-carbonyl]piperidin-4-yl}-1H-pyrrolo[2,3-c]pyridin-1-yl)-5-fluoro-N,N-di(propan-2-yl)benzamide [Example 6] | < 3 nM | – | –
2-(3-{1-[(3S)-2-azabicyclo[2.2.2]octane-3-carbonyl]-1,2,3,6-tetrahydropyridin-4-yl}-1H-pyrrolo[2,3-c]pyridin-1-yl)-5-fluoro-N,N-di(propan-2-yl)benzamide [Example 3] | 36 nM | 489 | –
2-(3-{1-[(3S)-2-azabicyclo[2.2.2]octane-3-carbonyl]-1,2,3,6-tetrahydropyridin-4-yl}-1H-pyrrolo[2,3-c]pyridin-1-yl)-5-fluoro-N-methyl-N-(propan-2-yl)benzamide [Example 2] | 530 nM | – | hERG/MV4; 11 [2]: 102; gap between concentration inhibiting 50% of MV4; 11 proliferation and concentration inhibiting 50% of hERG current [2]: more than 100 fold; IC50 [2, 3]: 54000 nM
2-(3-{1-[(3S)-2-azabicyclo[2.2.2]octane-3-carbonyl]azepan-4-yl}-1H-pyrrolo[2,3-c]pyridin-1-yl)-5-fluoro-N-methyl-N-(propan-2-yl)benzamide [Example 11] | < 30 nM | >1287 | –
2-(3-{1-[(3S)-2-azabicyclo[2.2.2]octane-3-carbonyl]piperidin-3-yl}-1H-pyrrolo[2,3-c]pyridin-1-yl)-5-fluoro-N-methyl-N-(propan-2-yl)benzamide [Example 9] | 1700 nM | 22 | –
2-(3-{1-[(3S)-2-azabicyclo[2.2.2]octane-3-carbonyl]piperidin-4-yl}-1H-pyrrolo[2,3-c]pyridin-1-yl)-5-fluoro-N-methyl-N-(propan-2-yl)benzamide [Example 4] | 73 nM | – | cell proliferation inhibition activity (MV4; 11 cells; summary in words): potent cell proliferation inhibition activity; hERG/MV4; 11 [2]: >1370; gap between concentration inhibiting 50% of MV4; 11 proliferation and concentration inhibiting 50% of hERG current [2]: more than 100 fold; IC50 [2, 3]: > 100000 nM; gap between concentration inhibiting 50% of RS4; 11 proliferation and concentration inhibiting 50% of hERG current ([2]; text prints RS4, 11 cells (table is MV4; 11)): more than 1000 fold
2-(3-{1-[(3S)-2-azabicyclo[2.2.2]octane-3-carbonyl]pyrrolidin-3-yl}-1H-pyrrolo[2,3-c]pyridin-1-yl)-5-fluoro-N,N-di(propan-2-yl)benzamide [Example 8] | 24 nM | 404 | –
2-(3-{1-[(3S)-2-azabicyclo[2.2.2]octane-3-carbonyl]pyrrolidin-3-yl}-1H-pyrrolo[2,3-c]pyridin-1-yl)-5-fluoro-N-methyl-N-(propan-2-yl)benzamide [Example 7] | 52 nM | 775 | –
2-(3-{2-[(1R,3S,4S)-2-azabicyclo[2.2.1]heptane-3-carbonyl]-2-azaspiro[3.4]octan-6-yl}-1H-pyrrolo[2,3-c]pyridin-1-yl)-5-fluoro-N-methyl-N-(propan-2-yl)benzamide [Example 24] | 58 nM | – | –
2-(3-{8-[(3S)-2-azabicyclo[2.2.2]octane-3-carbonyl]-8-azabicyclo[3.2.1]octan-3-yl}-1H-pyrrolo[2,3-c]pyridin-1-yl)-5-fluoro-N-methyl-N-(propan-2-yl)benzamide [Example 20] | 85 nM | 373 | –
2-[3-({1-[(3S)-2-azabicyclo[2.2.2]octane-3-carbonyl]azetidin-3-yl}methyl)-1H-pyrrolo[2,3-c]pyridin-1-yl]-5-fluoro-N-methyl-N-(propan-2-yl)benzamide [Example 26] | 1700 nM | >59 | –
2-[3-({1-[(3S)-2-azabicyclo[2.2.2]octane-3-carbonyl]piperidin-4-yl}methyl)-1H-pyrrolo[2,3-c]pyridin-1-yl]-5-fluoro-N-methyl-N-(propan-2-yl)benzamide [Example 27] | 780 nM | >128 | –
2-[3-({1-[(3S)-2-azabicyclo[2.2.2]octane-3-carbonyl]pyrrolidin-3-yl}methyl)-1H-pyrrolo[2,3-c]pyridin-1-yl]-5-fluoro-N-methyl-N-(propan-2-yl)benzamide [Example 25] | 29 nM | 334 | –
2-[3-({4-[(3S)-2-azabicyclo[2.2.2]octane-3-carbonyl]-1,4-diazepan-1-yl}methyl)-1H-pyrrolo[2,3-c]pyridin-1-yl]-5-fluoro-N-methyl-N-(propan-2-yl)benzamide [Example 29] | 2900 nM | >34 | –
2-[3-({4-[(3S)-2-azabicyclo[2.2.2]octane-3-carbonyl]piperazin-1-yl}methyl)-1H-pyrrolo[2,3-c]pyridin-1-yl]-5-fluoro-N-methyl-N-(propan-2-yl)benzamide [Example 28] | 3200 nM | >31 | –
5-fluoro-2-(3-{1-[(1S,3S,4R)-5-methylidene-2-azabicyclo[2.2.2]octane-3-carbonyl]piperidin-4-yl}-1H-pyrrolo[2,3-c]pyridin-1-yl)-N,N-di(propan-2-yl)benzamide [Example 5] | 35 nM | 589 | –
5-fluoro-2-(3-{1-[(1S,3S,4S,5S)-5-fluoro-2-azabicyclo[2.2.2]octane-3-carbonyl]azepan-4-yl}-1H-pyrrolo[2,3-c]pyridin-1-yl)-N-methyl-N-(propan-2-yl)benzamide [Example 12] | < 30 nM | >1050 | –
5-fluoro-2-(3-{8-[(1S,3S,4R)-5-methylidene-2-azabicyclo[2.2.2]octane-3-carbonyl]-8-azabicyclo[3.2.1]octan-3-yl}-1H-pyrrolo[2,3-c]pyridin-1-yl)-N,N-di(propan-2-yl)benzamide [Example 23] | 280 nM | – | –
5-fluoro-N-methyl-2-(3-{8-[(1S,3S,4R)-5-methylidene-2-azabicyclo[2.2.2]octane-3-carbonyl]-8-azabicyclo[3.2.1]octan-3-yl}-1H-pyrrolo[2,3-c]pyridin-1-yl)-N-(propan-2-yl)benzamide [Example 21] | 430 nM | – | –
CC(C)N(C)C(=O)c1cc(F)ccc1-n1cc(C2CCCN(C(=O)[C@H]3N[C@@H]4CC[C@H]3C4)CC2)c2ccncc21 (mixture of isomers) [Example 10, 2-(3-{1-[(1R,3S,4S)-2-azabicyclo[2.2.1]heptane-3-carbonyl]azepan-4-yl}-1H-pyrrolo[2,3-c]pyridin-1-yl)-5-fluoro-N-methyl-N-(propan-2-yl)benzamide] | – | – | IC50 (MV4; 11 cells; Homo sapiens, MV4-11, 168 h): 89 nM; IC50 ([2]; hERG IC50, hERG current): 55000 nM
CC(C)N(C(=O)c1cc(F)ccc1-n1cc(C2=CC3CCC(C2)N3C(=O)[C@H]2NC3CCC2CC3)c2ccncc21)C(C)C (single isomer, unassigned) [Example 19a] | < 30 nM | – | IC50 ([2]; hERG IC50, hERG current): 6000 nM; hERG/MV4; 11 [2]: >200
CC(C)N(C(=O)c1cc(F)ccc1-n1cc(C2=CC3CCC(C2)N3C(=O)[C@H]2NC3CCC2CC3)c2ccncc21)C(C)C (single isomer, unassigned) [Example 19b] | 140 nM | – | IC50 ([2]; hERG IC50, hERG current): 4500 nM; hERG/MV4; 11 [2]: 32
CC(C)N(C(=O)c1cc(F)ccc1-n1cc(C2CCN(C(=O)[C@H]3NC4CCC3CC4)CC2)c2ccncc21)C(C)C [Example 1, 2-(3-{1-[(3S)-2-Azabicyclo[2.2.2]octane-3-carbonyl]piperidin-4-yl}-1H-pyrrolo[2,3-c]pyridin-1-yl)-5-fluoro-N,N-di(propan-2-yl)benzamide] | – | – | IC50 (MV4; 11 cells; Homo sapiens, MV4-11, 168 h): 260 nM; IC50 ([2]; hERG IC50, hERG current): 30000 nM; hERG/MV4; 11 [2]: 114; gap between concentration inhibiting 50% of MV4; 11 proliferation and concentration inhibiting 50% of hERG current [2]: more than 100 fold
CC(C)N(C)C(=O)c1cc(F)ccc1-n1cc(C2CCCN(C(=O)[C@H]3N[C@@H]4CC[C@H]3C4)CC2)c2ccncc21 (stereo partly drawn) [Example 10, 2-(3-{1-[(1R,3S,4S)-2-azabicyclo[2.2.1]heptane-3-carbonyl]azepan-4-yl}-1H-pyrrolo[2,3-c]pyridin-1-yl)-5-fluoro-N-methyl-N-(propan-2-yl)benzamide] | – | – | hERG/MV4; 11 [2]: 621; gap between concentration inhibiting 50% of MV4; 11 proliferation and concentration inhibiting 50% of hERG current [2]: more than 100 fold
CC(C)N(C(=O)c1cc(F)ccc1-n1cc(C2=CCCN(C(=O)[C@H]3NC4CCC3CC4)CCC2)c2ccncc21)C(C)C [Example 14, 2-(3-{1-[(3S)-2-azabicyclo[2.2.2]octane-3-carbonyl]-1,2,3,4,7,8-hexahydroazocin-5-yl}-1H-pyrrolo[2,3-c]pyridin-1-yl)-5-fluoro-N,N-di(propan-2-yl)benzamide] | – | – | IC50 (MV4; 11 cells; Homo sapiens, MV4-11, 168 h): 2200 nM; IC50 ([2]; hERG IC50, hERG current): 3200 nM; hERG/MV4; 11 [2]: 1.5
C=C1C[C@@H]2CC[C@H]1[C@@H](C(=O)N1CCCC(c3cn(-c4ccc(F)cc4C(=O)N(C)C(C)C)c4cnccc34)CCC1)N2 [Example 16, 5-fluoro-N-methyl-2-(3-{1-[(1S,3S,4R)-5-methylidene-2-azabicyclo[2.2.2]octane-3-carbonyl]azocan-5-yl}-1H-pyrrolo[2,3-c]pyridin-1-yl)-N-(propan-2-yl)benzamide] | 240 nM | – | –
C=C1C[C@@H]2CC[C@H]1[C@@H](C(=O)N1CCCC(c3cn(-c4ccc(F)cc4C(=O)N(C(C)C)C(C)C)c4cnccc34)CCC1)N2 [Example 18, 5-fluoro-2-(3-{1-[(1S,3S,4R)-5-methylidene-2-azabicyclo[2.2.2]octane-3-carbonyl]azocan-5-yl}-1H-pyrrolo[2,3-c]pyridin-1-yl)-N,N-di(propan-2-yl)benzamide] | 730 nM | – | –
